Experimental data from patent publication US8455516B2, “HIV-1 fusion inhibitors and methods” (Touro University, priority 2010, dated 2013).
Read-outs that look alike come from different tables or passages of the source.

Key:
[1] = cytotoxicity, luciferase expression-based test; conditions: human, TZM-bl cells
TZM-bl cells = assay: cytotoxicity, luciferase expression-based test; conditions: toxicity to TZM-bl cells, 24 hour exposure
HIV-1 IIIB = assay: HIV-1 viral infectivity inhibition, IIIB; assay type: cell-based; conditions: Human immunodeficiency virus 1, IIIB
Description: (§1) The ability of the compounds to inhibit HIV-1 infectivity was assessed using standard assays as reported in the literature. See: 1) Desmezieres, E.; Gupta, N.; Vassell, R.; He, Y.; Peden, K.; Sirota, L.; Yang, Z.; Wingfield, P.; Weiss, C. D. J Virol 2005, 79, 4774, and 2) Lackman-Smith, C.; Osterling, C.; Luckenbaugh, K.; Mankowski, M.; Snyder, B.; Lewis, G.; Paull, J.; Profy, A.; Ptak, R. G.; Buckheit, R. W., Jr.; Watson, K. M.; Cummins, J. E.; Sanders-Beer, B. E. Antimicrob Agents Chemother 2008.

HIV-1 Ba-L = assay: HIV-1 viral infectivity inhibition, Ba-L; assay type: cell-based; conditions: Human immunodeficiency virus 1, BAL
Description: as §1

[2] = system: Pseudovirus HIV-1 BAL (CCR5-tropic strain)
MAGI cells = conditions: human
in vitro = conditions: human
[3] = system: Pseudovirus HIV-1 BAL (CCR5-tropic strain); assay: microbe, parasite or virus in culture; conditions: MAGI
HIV-1 HXB2 = assay: HIV-1 viral infectivity inhibition, HXB2; assay type: cell-based; conditions: Human immunodeficiency virus 1, HXB2
Description: as §1

[4] = target: T1, gp41 hydrophobic pocket (receptor Fe(env2.0)3) (Human immunodeficiency virus type 1 group M subtype B, UniProt P04578); assay: competitive inhibition fluorescence binding assay for the gp41 hydrophobic pocket; design: species or system HIV-1; conditions: binding constant, hydrophobic pocket of gp41
T1 construct: utilizing a receptor Fe(env2.0)3 selective for the hydrophobic pocket
Description: Compounds were validated for binding activity with a biochemical assay, and for biological activity with a cell-cell fusion (CCF) assay.
Association between the C-peptide and receptor leads to fluorescence quenching, which is reversed in the presence of an inhibitor. […] The assay is quantitative and provides the binding constant (KI) of the inhibitor.
Toxicity of the compounds to TZM-bl cells was also tested to ensure that the luminescence decrease was not simply due to cell death (CC50, toxicity).

COc1ccc(Cn2ccc3ccc(-c4ccc5ccn(Cc6cccc(C(=O)O)c6)c5c4)cc32)cc1 [II-3, 3-((1′-(4-methoxybenzyl)-1H,1′H-6,6′-biindol-1-yl)methyl)benzoic acid]
CC50 at 24 h [1]: 18.9 ± 2.9 µM

O=C(O)c1ccc(O)c(Cc2ccc3cc[nH]c3c2)c1 [Compound I-19, 3-((1H-indol-6-yl)methyl)-4-hydroxybenzoic acid]
CC50 at 24 h [1]: > 100 µM

O=C(O)c1cccc(COc2cccc(-c3ccc4ccn(Cc5cccc(C(=O)O)c5)c4c3)c2)c1 [Compound I-21, 3-((3-(1-(3-carboxybenzyl)-1H-indol-6-yl)phenoxy)methyl)benzoic acid]
CC50 at 24 h [1]: > 100 µM

O=C(O)c1ccc([N+](=O)[O-])c(Cc2ccc3cc[nH]c3c2)c1 [Compound I-16, 3-((1H-indol-6-yl)methyl)-4-nitrobenzoic acid]
CC50 at 24 h [1]: > 100 µM

COc1cc(Cc2ccc3cc[nH]c3c2)cc(C(=O)O)c1 [Compound I-20, 3-((1H-indol-6-yl)methyl)-5-methoxybenzoic acid]
CC50 at 24 h [1]: > 100 µM

O=C(O)c1cccc(Cn2ccc3cc(-c4cccc(C(=O)O)c4)ccc32)c1 [Compound I-13, 3-(1-(3-carboxybenzyl)-1H-indol-5-yl)benzoic acid]
CC50 (TZM-bl cells): > 400 µM

COc1cccc(-n2ccc3ccc(Cc4cccc(C(=O)O)c4)cc32)c1 [Compound I-7, 3-((1-(3-methoxyphenyl)-1H-indol-6-yl)methyl)benzoic acid]
IC50 (HIV-1 IIIB): 61.5 µM
IC50 (HIV-1 Ba-L): 67.7 µM
TI (TC50/IC50) ([2]; 2% Serum): >6.33
TI (TC50/IC50) ([2]; 5% Serum): >2.94
TI (TC50/IC50) ([2]; 10% Serum): >1.48
CC50 (MAGI cells): > 100 µM
CC50 (in vitro): > 100 µM
IC50 ([3]; 2% Serum): 15.8 µM
IC90 ([3]; 2% Serum): > 100 µM
IC50 ([3]; 5% Serum): 34 µM
IC90 ([3]; 5% Serum): > 100 µM
IC50 ([3]; 10% Serum): 67.7 µM
IC90 ([3]; 10% Serum): > 100 µM
CC50 at 24 h [1]: > 100 µM

COc1ccc(C(=O)O)cc1Cc1ccc2cc[nH]c2c1 [Compound I-17, 3-((1H-indol-6-yl)methyl)-4-methoxybenzoic acid]
CC50 at 24 h [1]: > 100 µM

O=C(O)c1cccc(Cc2ccc3c(ccn3Cc3cccc(C(=O)O)c3)c2)c1 [Compound I-10, 3-((1-(3-carboxybenzyl)-1H-indol-5-yl)methyl)benzoic acid]
CC50 (TZM-bl cells): > 400 µM

O=C(O)c1cccc(Cc2ccc3ccn(Cc4cccc(C(=O)O)c4)c3c2)c1 [Compound I-4, 3-((1-(3-(carboxy)benzyl)-1H-indol-6-yl)methyl)benzoic acid]
CC50 at 24 h [1]: > 200 µM

COc1ccc(COc2cccc(-c3ccc4ccn(Cc5cccc(C(=O)OCc6cccc(C(=O)O)c6)c5)c4c3)c2)cc1 [Compound I-22, 3-((3-((6-(3-(4-methoxybenzyloxy)phenyl)-1H-indol-1-yl)methyl)benzoyloxy)methyl)benzoic acid]
TI (TC50/IC50) ([2]; 2% Serum): 4.27
TI (TC50/IC50) ([2]; 5% Serum): >5.35
TI (TC50/IC50) ([2]; 10% Serum): >4.42
CC50 (in vitro): > 100 µM
IC50 ([3]; 2% Serum): 13.8 µM
IC90 ([3]; 2% Serum): 31.1 µM
IC50 ([3]; 5% Serum): 18.7 µM
IC90 ([3]; 5% Serum): 76.4 µM
IC50 ([3]; 10% Serum): 22.6 µM
IC90 ([3]; 10% Serum): 91.7 µM
CC50 at 24 h [1]: > 100 µM

O=C(O)c1cc(O)cc(Cc2ccc3cc[nH]c3c2)c1 [Compound I-18, 3-((1H-indol-6-yl)methyl)-5-hydroxybenzoic acid]
CC50 at 24 h [1]: > 100 µM

O=C(O)c1cccc(Cc2ccc3ccn(Cn4ccc5ccc(Cc6cccc(C(=O)O)c6)cc54)c3c2)c1 [Compound I-5, 3,3′-(1,1′-methylenebis(1H-indole-6,1-diyl))bis(methylene)dibenzoic acid]
IC50 (HIV-1 HXB2): 17 µM
IC50 (HIV-1 IIIB): ≥ 100 µM
IC50 (HIV-1 Ba-L): 92.1 µM
TI (TC50/IC50) ([2]; 2% Serum): >6.85
TI (TC50/IC50) ([2]; 5% Serum): >2.02
TI (TC50/IC50) ([2]; 10% Serum): >1.09
CC50 (MAGI cells): > 100 µM
CC50 (in vitro): > 100 µM
IC50 ([3]; 2% Serum): 14.6 µM
IC90 ([3]; 2% Serum): 71.2 µM
IC50 ([3]; 5% Serum): 49.6 µM
IC90 ([3]; 5% Serum): 93.6 µM
IC50 ([3]; 10% Serum): 92.1 µM
IC90 ([3]; 10% Serum): > 100 µM
CC50 at 24 h [1]: > 100 µM

O=C(O)c1cccc(Cc2ccc3cc[nH]c3c2)c1 [Compound I-1, 3-((1H-indol-6-yl)methyl)benzoic acid]
IC50 (HIV-1 IIIB): 99.9 µM
IC50 (HIV-1 Ba-L): 44.7 µM
TI (TC50/IC50) ([2]; 2% Serum): >6.45
TI (TC50/IC50) ([2]; 5% Serum): >2.87
TI (TC50/IC50) ([2]; 10% Serum): >2.24
CC50 (MAGI cells): > 100 µM
CC50 (in vitro): > 100 µM
IC50 ([3]; 2% Serum): 15.5 µM
IC90 ([3]; 2% Serum): 58 µM
IC50 ([3]; 5% Serum): 34.8 µM
IC90 ([3]; 5% Serum): 89.4 µM
IC50 ([3]; 10% Serum): 44.7 µM
IC90 ([3]; 10% Serum): > 100 µM
CC50 at 24 h [1]: > 500 µM

O=C(O)c1cccc(Cc2ccc3ccn(-c4cccc(C(=O)O)c4)c3c2)c1 [Compound I-6, 3-(6-(3-carboxybenzyl)-1H-indol-1-yl)benzoic acid]
Ki [4]: 45 ± 5 µM
CC50 (TZM-bl cells): > 400 µM

COc1ccc(Cn2ccc3ccc(Cc4cccc(C(=O)O)c4)cc32)cc1 [Compound I-2, 3-((1-(4-methoxybenzyl)-1H-indol-6-yl)methyl)benzoic acid]
CC50 (TZM-bl cells): 100 µM

O=Cc1c[nH]c2cc(Cc3cccc(C(=O)O)c3)ccc12 [Compound I-8, 3-((3-formyl-1H-indol-6-yl)methyl)benzoic acid]
CC50 at 24 h [1]: > 100 µM

O=C(O)c1cccc(Cc2ccc3[nH]ccc3c2)c1 [Compound I-9, 3-((1H-indol-5-yl)methyl)benzoic acid]
CC50 at 24 h [1]: > 400 µM

O=C(O)c1cccc(Cn2ccc3ccc(-c4cccc(O)c4)cc32)c1 [Compound I-14, 3-((6-(3-hydroxyphenyl)-1H-indol-1-yl)methyl)benzoic acid]
CC50 at 24 h [1]: > 100 µM

O=C(O)C(=O)c1c[nH]c2cc(Cc3cccc(C(=O)O)c3)ccc12 [Compound I-3, 3-((3-(carboxycarbonyl)-1H-indol-6-yl)methyl)benzoic acid]
CC50 at 24 h [1]: > 100 µM

O=C(O)c1cccc(-c2ccc3cc[nH]c3c2)c1 [Compound I-12, 3-(1H-indol-6-yl)benzoic acid]
CC50 at 24 h [1]: > 100 µM

COc1cccc(-c2ccc3ccn(Cc4cccc(C(=O)O)c4)c3c2)c1 [Compound I-11, 3-((6-(3-methoxyphenyl)-1H-indol-1-yl)methyl)benzoic acid]
IC50 (HIV-1 IIIB): 57.4 µM
IC50 (HIV-1 Ba-L): 47.4 µM
TI (TC50/IC50) ([2]; 2% Serum): 3.75
TI (TC50/IC50) ([2]; 5% Serum): >2.73
TI (TC50/IC50) ([2]; 10% Serum): >2.11
CC50 (in vitro): > 100 µM
IC50 ([3]; 2% Serum): 18 µM
IC90 ([3]; 2% Serum): > 100 µM
IC50 ([3]; 5% Serum): 36.6 µM
IC90 ([3]; 5% Serum): > 100 µM
IC50 ([3]; 10% Serum): 47.4 µM
IC90 ([3]; 10% Serum): > 100 µM
CC50 at 24 h [1]: > 100 µM

O=[N+]([O-])c1cccc(Cc2ccc3cc[nH]c3c2)c1 [Compound I-15, 6-(3-nitrobenzyl)-1H-indole]
CC50 at 24 h [1]: ~63 µM

O=C(O)c1cccc(Cn2ccc3cc(-c4ccc5cc(Cl)ccc5n4)ccc32)c1 [II-2, 3-((5-(6-chloroquinolin-2-yl)-1H-indol-1-yl)methyl)benzoic acid]
CC50 at 24 h [1]: 156 µM

O=C(O)c1cccc(Cn2ccc3ccc(-c4ccc5cc(Cl)ccc5n4)cc32)c1 [II-1, 3-((6-(6-chloroquinolin-2-yl)-1H-indol-1-yl)methyl)benzoic acid]
CC50 at 24 h [1]: 93 µM
